Reference: the NIST ThermoML archive (doi:10.1021/acs.jced.6b00688)

Test: xn = mol fraction of the nth substance listed
Conditions: 100 kPa, Liquid; for viscosity: Falling or rolling sphere viscometry; for mass density: Vibrating tube method

OCC1CCCCC1 [cyclohexylmethanol] + CC1CCCCC1
Conditions | mass density [kg/m3] | viscosity [mPa·s]
293.15 K, x2 = 0.0998 | 914.04 | 22.56
293.15 K, x2 = 0.1996 | 898.07 | 12.82
293.15 K, x2 = 0.2999 | 881.82 | 7.902
293.15 K, x2 = 0.3998 | 865.56 | 4.953
293.15 K, x2 = 0.5004 | 848.97 | 3.225
293.15 K, x2 = 0.6007 | 832.61 | 2.164
293.15 K, x2 = 0.6997 | 816.64 | 1.555
293.15 K, x2 = 0.7984 | 800.82 | 1.159
293.15 K, x2 = 0.9012 | 784.55 | 0.891
298.15 K, x2 = 0.0998 | 910.42 | 17.67
298.15 K, x2 = 0.1996 | 894.34 | 10.28
298.15 K, x2 = 0.2999 | 877.99 | 6.5
298.15 K, x2 = 0.3998 | 861.58 | 4.176
298.15 K, x2 = 0.5004 | 844.91 | 2.832
298.15 K, x2 = 0.6007 | 828.51 | 1.92
298.15 K, x2 = 0.6997 | 812.48 | 1.407
298.15 K, x2 = 0.7984 | 796.58 | 1.065
298.15 K, x2 = 0.9012 | 780.24 | 0.817
303.15 K, x2 = 0.0998 | 906.77 | 14.09
303.15 K, x2 = 0.1996 | 890.57 | 8.368
303.15 K, x2 = 0.2999 | 874.13 | 5.421
303.15 K, x2 = 0.3998 | 857.62 | 3.567
303.15 K, x2 = 0.5004 | 840.88 | 2.446
303.15 K, x2 = 0.6007 | 824.38 | 1.715
303.15 K, x2 = 0.6997 | 808.29 | 1.279
303.15 K, x2 = 0.7984 | 792.32 | 0.98
303.15 K, x2 = 0.9012 | 775.91 | 0.769
308.15 K, x2 = 0.0998 | 903.08 | 11.37
308.15 K, x2 = 0.1996 | 886.77 | 6.888
308.15 K, x2 = 0.2999 | 870.24 | 4.567
308.15 K, x2 = 0.3998 | 853.63 | 3.075
308.15 K, x2 = 0.5004 | 836.92 | 2.155
308.15 K, x2 = 0.6007 | 820.24 | 1.542
308.15 K, x2 = 0.6997 | 804.07 | 1.167
308.15 K, x2 = 0.7984 | 788.03 | 0.905
308.15 K, x2 = 0.9012 | 771.56 | 0.718
313.15 K, x2 = 0.0998 | 899.36 | 9.257
313.15 K, x2 = 0.1996 | 882.93 | 5.729
313.15 K, x2 = 0.2999 | 866.31 | 3.884
313.15 K, x2 = 0.3998 | 849.61 | 2.672
313.15 K, x2 = 0.5004 | 832.82 | 1.912
313.15 K, x2 = 0.6007 | 816.06 | 1.393
313.15 K, x2 = 0.6997 | 799.82 | 1.069
313.15 K, x2 = 0.7984 | 783.71 | 0.839
313.15 K, x2 = 0.9012 | 767.17 | 0.672
318.15 K, x2 = 0.0998 | 895.6 | 7.638
318.15 K, x2 = 0.1996 | 879.05 | 4.813
318.15 K, x2 = 0.2999 | 862.35 | 3.332
318.15 K, x2 = 0.3998 | 845.56 | 2.34
318.15 K, x2 = 0.5004 | 828.69 | 1.706
318.15 K, x2 = 0.6007 | 811.86 | 1.264
318.15 K, x2 = 0.6997 | 795.54 | 0.983
318.15 K, x2 = 0.7984 | 779.36 | 0.779
318.15 K, x2 = 0.9012 | 762.76 | 0.631
323.15 K, x2 = 0.0998 | 891.81 | 6.35
323.15 K, x2 = 0.1996 | 875.15 | 4.082
323.15 K, x2 = 0.2999 | 858.35 | 2.882
323.15 K, x2 = 0.3998 | 841.47 | 2.064
323.15 K, x2 = 0.5004 | 824.52 | 1.539
323.15 K, x2 = 0.6007 | 807.62 | 1.152
323.15 K, x2 = 0.6997 | 791.23 | 0.907
323.15 K, x2 = 0.7984 | 774.99 | 0.726
323.15 K, x2 = 0.9012 | 758.33 | 0.594
328.15 K, x2 = 0.0998 | 887.97 | 5.322
328.15 K, x2 = 0.1996 | 871.24 | 3.491
328.15 K, x2 = 0.2999 | 854.31 | 2.512
328.15 K, x2 = 0.3998 | 837.35 | 1.831
328.15 K, x2 = 0.5004 | 820.32 | 1.379
328.15 K, x2 = 0.6007 | 803.35 | 1.054
328.15 K, x2 = 0.6997 | 786.89 | 0.839
328.15 K, x2 = 0.7984 | 770.58 | 0.679
328.15 K, x2 = 0.9012 | 753.86 | 0.561
333.15 K, x2 = 0.0998 | 884.09 | 4.526
333.15 K, x2 = 0.1996 | 867.26 | 3.011
333.15 K, x2 = 0.2999 | 850.23 | 2.204
333.15 K, x2 = 0.3998 | 833.14 | 1.634
333.15 K, x2 = 0.5004 | 816.09 | 1.25
333.15 K, x2 = 0.6007 | 799.05 | 0.967
333.15 K, x2 = 0.6997 | 782.43 | 0.778
333.15 K, x2 = 0.7984 | 766.13 | 0.637
333.15 K, x2 = 0.9012 | 749.37 | 0.531
